Reference: article PMC3134342 (Journal of Experimental Botany, 2011)

What was measured:
At-A/N-InvA = target: T1, At-A/N-InvA (Arabidopsis thaliana, UniProt Q9FXA8); assay: inhibition of sucrose hydrolysis, fructose by HPAEC-PAD; assay type: biochemical; settings: 100 mM sucrose, 50 mM potassium phosphate, pH 8.2, 30 °C
T1 sequence (Q9FXA8 79-616): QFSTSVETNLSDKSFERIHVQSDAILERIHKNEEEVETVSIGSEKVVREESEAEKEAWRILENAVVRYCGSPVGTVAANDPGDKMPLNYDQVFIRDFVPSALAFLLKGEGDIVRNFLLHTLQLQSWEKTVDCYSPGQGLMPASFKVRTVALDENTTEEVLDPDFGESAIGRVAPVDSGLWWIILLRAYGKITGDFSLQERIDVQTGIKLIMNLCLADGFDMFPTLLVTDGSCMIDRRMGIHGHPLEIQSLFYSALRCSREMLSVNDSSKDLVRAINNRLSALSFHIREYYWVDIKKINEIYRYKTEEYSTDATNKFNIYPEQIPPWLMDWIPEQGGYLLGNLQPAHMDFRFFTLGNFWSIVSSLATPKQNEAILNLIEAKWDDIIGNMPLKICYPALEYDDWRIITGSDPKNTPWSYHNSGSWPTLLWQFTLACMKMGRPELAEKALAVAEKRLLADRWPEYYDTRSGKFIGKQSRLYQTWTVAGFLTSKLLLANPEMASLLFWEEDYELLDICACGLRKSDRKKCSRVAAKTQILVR

At-A/N-InvG = target: T2, At-A/N-InvG (Arabidopsis thaliana, UniProt Q9LQF2); assay: as above; assay type: biochemical
T2 sequence (Q9LQF2 1-551): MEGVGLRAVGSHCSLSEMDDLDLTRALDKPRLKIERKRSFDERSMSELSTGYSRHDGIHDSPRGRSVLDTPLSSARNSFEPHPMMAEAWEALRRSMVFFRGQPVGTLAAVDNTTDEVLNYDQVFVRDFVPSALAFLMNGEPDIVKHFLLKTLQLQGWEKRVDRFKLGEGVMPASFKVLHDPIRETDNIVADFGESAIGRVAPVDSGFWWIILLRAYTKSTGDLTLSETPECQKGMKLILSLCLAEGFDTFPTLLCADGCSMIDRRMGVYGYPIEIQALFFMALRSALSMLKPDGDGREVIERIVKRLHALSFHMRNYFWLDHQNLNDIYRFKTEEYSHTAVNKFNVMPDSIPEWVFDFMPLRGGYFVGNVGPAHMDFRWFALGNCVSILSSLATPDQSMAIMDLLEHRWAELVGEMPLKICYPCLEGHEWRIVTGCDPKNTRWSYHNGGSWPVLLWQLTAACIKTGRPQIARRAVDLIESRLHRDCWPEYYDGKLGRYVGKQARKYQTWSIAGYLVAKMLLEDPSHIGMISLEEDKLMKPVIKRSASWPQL

IC50 (At-A/N-InvG): 25 to 30 mM
Compound: NC(CO)(CO)CO [TRIS]
activity vs TRIS concentration (At-A/N-InvA): A typical inhibitory effect of TRIS on At-A/N-InvA activity was found
